# Target: GCN2 (Homo sapiens, UniProt Q9P2K8)
# Test: GCN2 enzymatic endpoint assay: phosphorylation of GFP-eIF2α measured by TR-FRET (Lanthascreen)
# Assay type: biochemical
# Conditions: tested as described in Example 77; compound and/or hydrochloride, dihydrochloride or trifluoroacetic acid salt; read-out: IC 50 Activity
# How it was run: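 Endpoint kinase reaction with 2 μM ATP and 80 nM GFP-labelled eIF2α substrate, run at room temperature for 90 min, then stopped with EDTA. Phospho-substrate detected by terbium-antibody TR-FRET, activity taken as the 520/495 nm emission ratio.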
# GCN2, sequence (Q9P2K8 whole entry): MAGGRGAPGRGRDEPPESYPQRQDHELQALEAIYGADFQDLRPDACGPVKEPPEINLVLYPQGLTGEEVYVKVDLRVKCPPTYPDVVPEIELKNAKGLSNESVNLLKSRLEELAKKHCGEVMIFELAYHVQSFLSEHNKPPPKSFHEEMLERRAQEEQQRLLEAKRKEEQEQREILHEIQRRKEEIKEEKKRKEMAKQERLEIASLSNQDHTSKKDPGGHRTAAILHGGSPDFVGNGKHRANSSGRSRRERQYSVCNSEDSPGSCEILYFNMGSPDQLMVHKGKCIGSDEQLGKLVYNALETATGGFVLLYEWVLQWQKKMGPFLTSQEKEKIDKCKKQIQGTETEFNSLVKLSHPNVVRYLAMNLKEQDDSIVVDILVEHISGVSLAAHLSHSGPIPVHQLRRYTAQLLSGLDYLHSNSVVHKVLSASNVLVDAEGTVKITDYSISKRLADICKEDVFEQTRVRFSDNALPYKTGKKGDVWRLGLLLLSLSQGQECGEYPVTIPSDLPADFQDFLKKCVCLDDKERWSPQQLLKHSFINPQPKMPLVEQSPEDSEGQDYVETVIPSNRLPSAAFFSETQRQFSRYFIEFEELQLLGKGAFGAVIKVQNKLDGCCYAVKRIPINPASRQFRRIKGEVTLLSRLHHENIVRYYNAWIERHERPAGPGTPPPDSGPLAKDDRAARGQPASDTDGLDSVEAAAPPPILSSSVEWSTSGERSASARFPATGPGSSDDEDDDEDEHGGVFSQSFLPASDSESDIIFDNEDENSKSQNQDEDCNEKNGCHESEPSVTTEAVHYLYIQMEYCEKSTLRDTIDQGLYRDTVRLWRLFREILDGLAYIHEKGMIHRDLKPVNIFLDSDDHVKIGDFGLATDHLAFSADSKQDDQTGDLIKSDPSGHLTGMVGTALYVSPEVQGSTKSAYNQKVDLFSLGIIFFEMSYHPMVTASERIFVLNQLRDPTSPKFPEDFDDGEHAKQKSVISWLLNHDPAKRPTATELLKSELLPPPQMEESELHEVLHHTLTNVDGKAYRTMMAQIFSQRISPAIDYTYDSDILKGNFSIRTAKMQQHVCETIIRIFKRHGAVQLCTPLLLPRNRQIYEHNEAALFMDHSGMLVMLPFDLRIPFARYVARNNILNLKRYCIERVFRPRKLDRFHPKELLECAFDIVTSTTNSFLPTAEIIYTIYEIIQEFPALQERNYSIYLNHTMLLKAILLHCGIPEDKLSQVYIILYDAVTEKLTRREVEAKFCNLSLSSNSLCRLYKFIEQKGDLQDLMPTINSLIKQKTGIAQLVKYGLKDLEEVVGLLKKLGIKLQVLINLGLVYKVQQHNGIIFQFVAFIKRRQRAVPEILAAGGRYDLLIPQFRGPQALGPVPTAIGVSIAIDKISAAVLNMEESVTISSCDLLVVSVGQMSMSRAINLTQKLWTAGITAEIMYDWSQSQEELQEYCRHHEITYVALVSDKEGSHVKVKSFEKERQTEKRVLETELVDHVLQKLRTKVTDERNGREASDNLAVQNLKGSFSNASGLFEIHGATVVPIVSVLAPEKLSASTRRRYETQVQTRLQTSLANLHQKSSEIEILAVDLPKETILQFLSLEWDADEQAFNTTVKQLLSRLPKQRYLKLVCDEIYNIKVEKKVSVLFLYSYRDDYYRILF
row,Compound,IC50 [nM]
1,"CC1(NC(=O)[C@@H]2CC[C@@H](Nc3ncc4c(Br)nn(-c5ccc6ncccc6c5)c4n3)C2)CCOC1 (stereo partly drawn) [(1R,3R)-3-((3-bromo-1-(quinolin-6-yl)-1H-pyrazolo[3,4-d]pyrimidin-6-yl)amino)-N-(3-methyltetrahydrofuran-3-yl)cyclopentane-1-carboxamide]",25 to 200
2,Cc1nnc(-c2ccc(-n3nc(Br)c4cnc(N[C@@H]5CC[C@@](C)(N)C5)nc43)cc2)s1,25 to 200
3,"CC1(C(=O)N2CNC(=O)C2)CC[C@@H](Nc2ncc3c(Br)nn(-c4cc(F)c5ncccc5c4)c3n2)C1 (stereo partly drawn) [1-[(3R)-3-[[3-bromo-1-(8-fluoro-6-quinolyl)pyrazolo[3,4-d]pyrimidin-6-yl]amino]-1-methyl-cyclopentanecarbonyl]imidazolidin-4-one]",< 25
4,"CNC(=O)[C@]1(C)CC[C@@H](Nc2ncc3c(Br)nn(-c4ccc(-c5ncco5)c([C@H](C)C#N)c4)c3n2)C1 [(1R,3R)-3-[[3-bromo-1-[3-[(1S)-1-cyanoethyl]-4-oxazol-2-yl-phenyl]pyrazolo[3,4-d]pyrimidin-6-yl]amino]-N,1-dimethyl-cyclopentane-carboxamide]",25 to 200
5,"O=C([C@@H]1CC[C@@H](Nc2ncc3c(Br)nn(-c4ccc5ncccc5c4)c3n2)C1)N1CC[S+]([O-])CC1 [((1R,3R)-3-((3-bromo-1-(quinolin-6-yl)-1H-pyrazolo[3,4-d]pyrimidin-6-yl)amino)cyclo-pentyl)(1-oxidothiomorpholino)methanone]",25 to 200
6,"CNC(=O)[C@]1(C)CC[C@@H](Nc2ncc3c(Br)nn(-c4cc(CN[S+](C)[O-])c5nccnc5c4)c3n2)C1 (stereo partly drawn) [(1R,3R)-3-[[3-bromo-1-[8-(methane-sulfinamidomethyl)quinoxalin-6-yl]pyrazolo[3,4-d]pyrimidin-6-yl]amino]-N,1-dimethyl-cyclopentane-carboxamide]",25 to 200
7,CNS(=O)(=O)C1CC[C@@H](Nc2ncc3c(Br)nn(-c4cc(Cl)cc([C@H](C)N)c4)c3n2)C1 (stereo partly shown),25 to 200
8,"CNC(=O)[C@]1(C)CC[C@@H](Nc2ncc3c(Br)nn(-c4ccc(-c5ncco5)c(CC(=O)N(C)C)c4)c3n2)C1 [(1R,3R)-3-[[3-bromo-1-[3-[2-(dimethylamino)-2-oxo-ethyl]-4-oxazol-2-yl-phenyl]pyrazolo [3,4-d]pyrimidin-6-yl]amino]-N,1-dimethyl-cyclopentanecarboxamide]",25 to 200
9,CNc1ncc2cc(-n3nc(Br)c4cnc(N[C@@H]5CCC(C)(O)C5)nc43)ccc2n1 (stereo partly shown),25 to 200
10,"CNS(=O)(=O)C1CC[C@@H](Nc2ncc3c(Br)nn(-c4ccc(-c5nnc(C)s5)c(C#N)c4)c3n2)C1 (stereo partly drawn) [(3R)-3-[[3-bromo-1-[3-cyano-4-(5-methyl-1,3,4-thiadiazol-2-yl)phenyl]pyrazolo[3,4-d]pyrimidin-6-yl]amino]-N-methyl-cyclopentanesulfonamide]",25 to 200
11,Cc1nnc(-c2ccc(-n3nc(Br)c4cnc(NC5CCC(CN(C)C)(C(=O)O)C5)nc43)cc2)s1 (stereo not shown),25 to 200
12,"CNC(=O)[C@]1(C)CC[C@@H](Nc2ncc3c(Br)nn(-c4cc(CCNC(=O)OC)c5ncccc5c4)c3n2)C1 [methyl N-[2-[6-[3-bromo-6-[[(1R,3R)-3-methyl-3-(methylcarbamoyl)cyclopentyl]amino]pyrazolo[3,4-d]pyrimidin-1-yl]-8-quinolyl]ethyl]carbamate]",25 to 200
13,CNC(=O)[C@]1(C)CC[C@@H](Nc2ncc3c(Br)nn(-c4ccc5ncn(CCO)c(=O)c5c4)c3n2)C1,25 to 200
14,"CNC(=O)[C@]1(C)CC[C@@H](Nc2ncc3c(Br)nn(-c4cc(CCNC(=O)/C=C/CN(C)C)c5ncccc5c4)c3n2)C1 [(1R,3R)-3-[[3-bromo-1-[8-[2-[[(E)-4-(dimethylamino)but-2-enoyl]amino]ethyl]-6-quinolyl]pyrazolo[3,4-d]pyrimidin-6-yl]amino]-N,1-dimethyl-cyclopentane-carboxamide]",25 to 200

# Results, then the compound that gave them:
row,IC50 [nM],Compound
1,500 to 1000,"O=C([C@@H]1CC[C@@H](Nc2ncc3c(Br)nn(-c4cc(F)c5ncccc5c4)c3n2)C1)N1CCC(O)(C(=O)O)C1 (stereo partly drawn) [1-((1R,3R)-3-((3-bromo-1-(8-fluoroquinolin-6-yl)-1H-pyrazolo[3,4-d]pyrimidin-6-yl)amino)cyclopentane-1-carbonyl)-3-hydroxy-pyrrolidine-3-carboxylic acid]"
2,< 25,"CNC(=O)[C@]1(C)CC[C@@H](Nc2ncc3c(Br)nn(-c4ccc(-c5ncco5)c(NC(=O)[C@H]5CCNC5)c4)c3n2)C1 [(3S)-N-[5-[3-bromo-6-[[(1R,3R)-3-methyl-3-(methylcarbamoyl)cyclopentyl]amino]pyrazolo[3,4-d]pyrimidin-1-yl]-2-oxazol-2-yl-phenyl]pyrrolidine-3-carboxamide]"
3,200 to 500,"COCCNC(=O)[C@@H]1CC[C@@H](Nc2ncc3c(Br)nn(-c4ccc5nc(C)cc(Cl)c5c4)c3n2)C1 [(1R,3R)-3-((3-bromo-1-(4-chloro-2-methyl-quinolin-6-yl)-1H-pyrazolo[3,4-d]pyrimidin-6-yl)amino)-N-(2-methoxyethyl)cyclopentane-1-carboxamide]"
4,25 to 200,"COCCNC(=O)[C@@H]1CC[C@@H](Nc2ncc3c(Br)nn(-c4cc(C(F)F)c5ncccc5c4)c3n2)C1 [(1R,3R)-3-((3-bromo-1-(8-(difluoromethyl)quinolin-6-yl)-1H-pyrazolo[3,4-d]pyrimidin-6-yl)amino)-N-(2-methoxyethyl)cyclopentane-1-carboxamide]"
5,25 to 200,"CNC(=O)[C@]1(C)CC[C@@H](Nc2ncc3c(Br)nn(-c4cc(CNCCOC)c5ncccc5c4)c3n2)C1 [(1R,3R)-3-[[3-bromo-1-[8-[(2-methoxy-ethylamino)methyl]-6-quinolyl]pyrazolo [3,4-d]pyrimidin-6-yl]amino]-N,1-dimethyl-cyclopentanecarboxamide]"
6,25 to 200,"CNC(=O)[C@]1(C)CC[C@@H](Nc2ncc3c(Br)nn(-c4ccc(-c5nnc(C(F)F)o5)cc4)c3n2)C1 [(1R,3R)-3-[[3-bromo-1-[4-[5-(difluoro-methyl)-1,3,4-oxadiazol-2-yl]phenyl]pyrazolo[3,4-d]pyrimidin-6-yl]amino]-N,1-dimethyl-cyclopentanecarboxamide]"
7,25 to 200,"CNC(=O)[C@]1(C)CC[C@@H](Nc2ncc3c(Br)nn(-c4ccc(-c5nnc(C(C)C)o5)cc4)c3n2)C1 [(1R,3R)-3-[[3-bromo-1-[4-(5-isopropyl-1,3,4-oxadiazol-2-yl)phenyl]pyrazolo[3,4-d]pyrimidin-6-yl]amino]-N,1-dimethyl-cyclopentanecarboxamide]"
8,25 to 200,"CNC(=O)C1(C)CC[C@@H](Nc2ncc3c(Br)nn(-c4cc(Cl)cc(CO)c4)c3n2)C1 (stereo partly drawn) [(3R)-3-[[3-bromo-1-[3-chloro-5-(hydroxy-methyl)phenyl]pyrazolo[3,4-d]pyrimidin-6-yl]amino]-N,1-dimethyl-cyclopentane-carboxamide]"
9,500 to 1000,"Cn1ccnc1-c1ccc(-n2nc(Br)c3cnc(N[C@@H]4CC[C@@H](C(=O)NCCS(C)(=O)=O)C4)nc32)cc1 [(1R,3R)-3-((3-bromo-1-(4-(1-methyl-1H-imidazol-2-yl)phenyl)-1H-pyrazolo[3,4-d]pyrimidin-6-yl)amino)-N-(2-(methyl-sulfonyl)ethyl)cyclopentane-1-carboxamide]"
10,25 to 200,"CNC(=O)[C@@]1([C@H](C)C#N)CC[C@@H](Nc2ncc3c(Br)nn(-c4ccc(-c5nnc(C)s5)cc4)c3n2)C1 [(1S,3R)-3-[[3-bromo-1-[4-(5-methyl-1,3,4-thiadiazol-2-yl)phenyl]pyrazolo [3,4-d]pyrimidin-6-yl]amino]-1-[(1S)-1-cyanoethyl]-N-methyl-cyclopentane-carboxamide]"
11,25 to 200,"CC1(C(=O)NCC(F)(F)F)CC[C@@H](Nc2ncc3c(Br)nn(-c4cc(F)c5ncccc5c4)c3n2)C1 (stereo partly drawn) [(3R)-3-[[3-bromo-1-(8-fluoro-6-quinolyl)pyrazolo[3,4-d]pyrimidin-6-yl]amino]-1-methyl-N-(2,2,2-trifluoroethyl)cyclo-pentanecarboxamide]"
12,25 to 200,"C[C@@]1(C(=O)N2CCN3C(=O)CC[C@H]3C2)CC[C@@H](Nc2ncc3c(Br)nn(-c4cc(F)c5ncccc5c4)c3n2)C1 [(8aS)-2-[(1R,3R)-3-[[3-bromo-1-(8-fluoro-6-quinolyl)pyrazolo[3,4-d]pyrimidin-6-yl]amino]-1-methyl-cyclopentanecarbonyl]-1,3,4,7,8,8a-hexahydropyrrolo[1,2-a]pyrazin-6-one]"
13,25 to 200,"O=C(NCCN1CCNC1=O)[C@@H]1CC[C@@H](Nc2ncc3c(Br)nn(-c4cc(F)c5ncccc5c4)c3n2)C1 [(1R,3R)-3-((3-bromo-1-(8-fluoroquinolin-6-yl)-1H-pyrazolo[3,4-d]pyrimidin-6-yl)amino)-N-(2-(2-oxoimidazolidin-1-yl)ethyl)cyclo-pentane-1-carboxamide]"
14,25 to 200,"CNC(=O)[C@]1(C)CCC(Nc2ncc3c(Br)nn(-c4ccc5c(c4)NC(=O)CC5)c3n2)C1 (stereo partly drawn) [(1R)-3-[[3-bromo-1-(2-oxo-3,4-dihydro-1H-quinolin-7-yl)pyrazolo[3,4-d]pyrimidin-6-yl]amino]-N,1-dimethyl-cyclopentane-carboxamide]"
15,25 to 200,"CNC(=O)[C@]1(C)CC[C@@H](Nc2ncc3c(Br)nn(-c4ccc(-c5nnc(C)o5)nc4)c3n2)C1 [(1R,3R)-3-[[3-bromo-1-[6-(5-methyl-1,3,4-oxadiazol-2-yl)-3-pyridyl]pyrazolo [3,4-d]pyrimidin-6-yl]amino]-N,1-dimethyl-cyclopentanecarboxamide]"
16,25 to 200,"CNC(=O)[C@H]1C[C@H](Nc2ncc3c(Br)nn(-c4cc(Cl)cc(CO)c4)c3n2)CO1 [(2R,4S)-4-[[3-bromo-1-[3-chloro-5-(hydroxymethyl)phenyl]pyrazolo [3,4-d]pyrimidin-6-yl]amino]-N-methyl-tetrahydrofuran-2-carboxamide]"
17,< 25,"Cc1nnc(-c2ccc(-n3nc(Br)c4cnc(N[C@@H]5CC[C@](C(=O)N6CCNCC6)(C(C)C)C5)nc43)cc2CCC#N)s1 [3-[5-[3-bromo-6-[[(1R,3R)-3-isopropyl-3-(piperazine-1-carbonyl)cyclopentyl]amino]pyrazolo[3,4-d]pyrimidin-1-yl]-2-(5-methyl-1,3,4-thiadiazol-2-yl)phenyl] propanenitrile]"
